Reference: patent US10844023B2 (Washington University, priority 2017, dated 2020)

Tested on: Mfn2 null MEFs
Experiment: Mitochondrial elongation (aspect ratio) fusogenicity assay
Type: cell-based, mouse
Parameters: % long compare to B: dose or concentration left out as unconfirmed
Conditions: for % long compare to B: mitochondrial elongation relative to Cpd B (B01 = 100), compound overnight as printed (FIG. 48); for % long compare to B / Aspect ratio (MEAN ± SEM): Mfn2 null MEFs; for Aspect ratio (MEAN ± SEM): overnight, treatment with 1 μM compound (footnote); for Fusogenicity Rank: rank order of aspect ratio among 44 soluble library compounds

Cc1ccccc1-n1cnnc1SCC(=O)Nc1sc2c(c1C(N)=O)CCC2 [1-C5, 2-(2-{[4-(2-methylphenyl)-4H-1,2,4-triazol-3-yl]sulfanyl}acet-amido)-4H,5H,6H-cyclopenta-[b]thiophene-3-carboxamide]
% long compare to B: 12%

CCOc1ccccc1NC(=O)CSCc1cc(=O)c2ccc(C)c(C)c2[nH]1 [D01, 2-{[(7,8-dimethyl-4-oxo-1,4-dihydroquinolin-2-yl)methyl]sulfanyl}-N-(2-ethoxyphenyl)acetamide]
% long compare to B: 9%

Cc1ccc(-n2nnnc2SC(C)c2nc(-c3nnc[nH]3)no2)cc1 (stereo not shown) [drawing 215, 1-(4-methylphenyl)-5-({1-[3-(4H-1,2,4-triazol-3-yl)-1,2,4-oxadiazol-5-yl]ethyl}sulfanyl)-1H-1,2,3,4-tetrazole]
Aspect ratio (MEAN ± SEM): 3.4 ± 0.3
Fusogenicity Rank: 27

Cc1cccc(C)c1NC(=O)CCCSCc1ncc(C(C)C)o1 [B10, N-(2,6-dimethylphenyl)-4-({[5-(propan-2-yl)-1,3-oxazol-2-yl]methyl}sulfanyl)-butanamide]
% long compare to B: 6%

NC(=O)c1c(NC(=O)CSc2nnc(-c3ccccc3)n2-c2ccccc2)sc2c1CCCC2 [1-G2, 2-{2-[(diphenyl-4H-1,2,4-triazol-3-yl)sulfanyl]acetamido}-4,5,6,7-tetrahydro-1-benzothiophene-3-carboxamide]
% long compare to B: 20%

Cn1c(CC2CCS(=O)(=O)C2)nnc1SCC(=O)Nc1sc2c(c1C(N)=O)CCCC2 (stereo not drawn) [1-C6, 2-[2-({5-[(1,1-dioxo-1λ^6-thiolan-3-yl)methyl]-4-methyl-4H-1,2,4-triazol-3-yl}sulfanyl)-acetamido]-4,5,6,7-tetrahydro-l-benzothiophene-3-carboxamide]
% long compare to B: 23%

COc1ccccc1-n1c(C)nnc1SCC(=O)Nc1sc2c(c1C(N)=O)CCCC2 [1-F4, 2-(2-{[4-(2-methoxyphenyl)-5-methyl-4H-1,2,4-triazol-3-yl]sulfanyl}acetamido)-4,5,6,7-tetrahydro-1-benzothiophene-3-carboxamide]
% long compare to B: 22%

CC(Sc1nnc(N2CCOCC2)n1Cc1ccccc1)C(=O)Nc1ccc2c(c1)OCO2 (stereo not shown) [A01, N-(2H-1,3-benzodioxol-5-yl)-2-{[4-benzyl-5-(morpholin-4-yl)-4H-1,2,4-triazol-3-yl]sulfanyl)propana-mide]
% long compare to B: −14%

CCC(c1nnc(SCC(=O)Nc2sc3c(c2C(N)=O)CCC3)n1Cc1ccccc1)N(C)C (stereo not shown) [1-D1, 2-[2-({4-benzyl-5-[1-(dimethyl-amino)propyl]-4H-1,2,4-triazol-3-yl}sulfanyl)acetamido]-4H,5H,6H-cyclopenta[b]thio-phene-3-carboxamide]
% long compare to B: 23%

Cc1cccc(NC(=O)CSCC(=O)N(Cc2ccc(N(C)C)cc2)C(C)C)c1 [N-{[4-(dimethylamino)phenyl]methyl}-2-({[(3-methylphenyl)carbamoyl]methyl}sulfanyl)-N-(propan-2-yl)acetamide]
Aspect ratio (MEAN ± SEM): 4.6 ± 0.2
Fusogenicity Rank: 12

Cc1ccccc1-c1nnc(SCC(=O)Nc2sc3c(c2C(N)=O)CCC3)n1C [1-E7, 2-(2-{[4-methyl-5-(2-methyl-phenyl)-4H-1,2,4-triazol-3-yl]sulfanyl}acetamido)-4H,5H,6H-cyclopenta[b]-thiophene-3-carboxamide]
% long compare to B: 9%

Cc1nc[nH]c1CSCCn1cnc2cn(C)nc2c1=O [E03, 2-methyl-6-(2-{[(4-methyl-1H-imidazol-5-yl)methyl]sulfanyl}-ethyl)-2H,6H,7H-pyrazolo[4,3-d]pyrimidin-7-one]
% long compare to B: −10%

CC(Sc1ccc(Br)cc1)C(=O)Nc1ccc2c(c1)OCCO2 (stereo not shown) [A05, 2-[(4-bromophenyl)sulfanyl]-N-(2,3-dihydro-1,4-benzodioxin-6-yl)propanamide]
% long compare to B: −2%

COc1ccc(-n2cnnc2SCC(=O)Nc2sc3c(c2C(N)=O)CCC3)cc1 [1-D2, 2-(2-{[4-(4-methoxyphenyl)-4H-1,2,4-triazol-3-yl]sul-fanyl}acetamido)-4H,5H,6H-cyclopenta[b]thiophene-3-carboxamide]
% long compare to B: 128%

CC(Sc1nnc(-c2ccccc2)n1Cc1ccco1)C(=O)Nc1sc2c(c1C(N)=O)CCC2 (stereo not shown) [1-D7, 2-[2-({4-[(furan-2-yl)methyl]-5-phenyl-4H-1,2,4-triazol-3-yl}sulfanyl)propanamido]-4H,5H,6H-cyclopenta[b]thio-phene-3-carboxamide]
% long compare to B: 92%

NC(=O)c1c(NC(=O)CCCc2ccccc2)sc2c1CCC2 [pB, 2-(4-phenylbutanamido)-4H,5H,6H-cyclopenta[b]thiophene-3-carboxamide]
% long compare to B: 6%

CC(C)C1=CC2C(=O)NC(CSCC(=O)NCc3ccccn3)=NC2S1 (stereo not shown) [drawing 204, 2-({[4-oxo-6-(propan-2-yl)-3H,4H,4aH,7aH-thieno[2,3-d]pyrimidin-2-yl]methyl}sulfanyl)-N-[(pyridin-2-yl)methyl]acetamide]
Aspect ratio (MEAN ± SEM): 3.8 ± 0.6
Fusogenicity Rank: 21

O=C(Nc1cc(CSCCOC(=O)C2C3CCCCC32)ccn1)C1C2CCCCC21 (stereo not shown) [2-{[(2-{bicyclo[4.1.0]heptane-7-amido}pyridin-4-yl)methyl]sulfanyl}ethyl bicyclo[4.1.0]heptane-7-carboxylate]
Aspect ratio (MEAN ± SEM): 4.8 ± 1.0
Fusogenicity Rank: 10

Cc1ccc(C(=O)C(C)Sc2nnc3c(=O)n(-c4ccc(C)c(C)c4)ccn23)cc1C (stereo not shown) [drawing 240, 7-(3,4-dimethylphenyl)-3-{[1-(3,4-dimethylphenyl)-1-oxopropan-2-yl]sulfanyl}-7H,8H-[1,2,4]triazolo[4,3-a]pyrazin-8-one]
Aspect ratio (MEAN ± SEM): 3.9 ± 0.8
Fusogenicity Rank: 19

Cc1nc[nH]c1CSCCNC(=O)C1CCN(C(=O)C2CCC2)CC1 [drawing 220, 1-cyclobutanecarbonyl-N-(2-{[(4-methyl-1H-imidazol-5-yl)methyl]sulfanyl}ethyl)piperidine-4-carboxamide]
Aspect ratio (MEAN ± SEM): 2.9 ± 0.5
Fusogenicity Rank: 40

CC(Sc1nnc(N2CCOCC2)n1Cc1ccccc1)C(=O)Nc1ccc2[nH]c(=O)[nH]c2c1 (stereo not shown) [B03, 2-{[4-benzyl-5-(morpholin-4-yl)-4H-1,2,4-triazol-3-yl]sulfanyl}-N-(2-oxo-2,3-dihydro-1H-1,3-benzodiazol-5-yl)propanamide]
% long compare to B: 39%

CCn1c(SCC(=O)Nc2sc3c(c2C(N)=O)CCC(C)C3)nnc1C1CC1 (stereo not shown) [1-D11, 2-{2-[(5-cyclopropyl-4-ethyl-4H-1,2,4-triazol-3-yl)sulfanyl]acetamido}-6-methyl-4,5,6,7-tetrahydro-1-benzothiophene-3-carboxamide]
% long compare to B: 6%

CCn1c(SCC(=O)Nc2sc3c(c2C(N)=O)CCCC3)nnc1C1CC1 [1-F5, 2-{2-[(5-cyclopropyl-4-ethyl-4H-1,2,4-triazol-3-yl)sulfanyl]acet-amido}-4,5,6,7-tetrahydro-1-benzothiophene-3-carboxamide]
% long compare to B: −7%

CCOC(=O)c1sc(NC(=O)C(CC)Sc2nnc3c(n2)[nH]c2ccccc23)nc1C (stereo not shown) [D04, ethyl 4-methyl-2-(2-{5H-[1,2,4]triazino[5,6-b]indol-3-ylsulfanyl}butanamido)-1,3-thiazole-5-carboxylate]
% long compare to B: 24%

Cn1c(SCC(=O)Nc2sc3c(c2C(N)=O)CCC3)nnc1-c1ccc(F)cc1 [1-A3, 2-(2-{[5-(4-fluorophenyl)-4-methyl-4H-1,2,4-triazol-3-yl]sulfanyl}acetamido)-4H,5H,6H-cyclopenta[b]-thiophene-3-carboxamide]
% long compare to B: −10%
